What all share (assay type): ADME, cell-based
The test system of series [1] is RPMI 8402. As to the kind of experiment: Uptake in human RPMI8402 cells at 1 uM after 0.5 hrs. To be noted: rpmi 8402, 0.5 h.
The subject of series [2] is RPMI 8402. Kind of series: Uptake in human RPMI8402 cells at 1 uM after 4 hrs. Particulars: rpmi 8402, 4 h.
Series [3] relates to RPMI 8402. Kind of series: Uptake in human RPMI8402 cells at 1 uM after 1 hr. Particulars: rpmi 8402, 1 h.
Series [4] deals with RPMI 8402. As to the kind of experiment: Uptake in human RPMI8402 cells at 1 uM after 2 hrs. Particulars: rpmi 8402, 2 h.

The source of these data is ChEMBL document CHEMBL1146184, “Drug self-association modulates the cellular bioavailability of DNA minor groove-directed terbenzimidazoles” (J Med Chem, 2006).

Consider `c1ccc(-c2ccc3[nH]c(-c4ccc5[nH]c(-c6ccc7cc[nH]c7c6)nc5c4)nc3c2)cc1`, for which the Drug uptake in the series on RPMI 8402 [1] was 18%; in the series on RPMI 8402 [2], 30%.
With `c1ccc(-c2ccc3[nH]c(-c4ccc5[nH]c(-c6ccc7[nH]cnc7c6)nc5c4)nc3c2)cc1`, the Drug uptake in the series on RPMI 8402 [1], in the series with RPMI 8402 [3], with RPMI 8402 [4] and with RPMI 8402 [2] was 3% each time.
